Reference: PMC3003779 (Chemistry & biology, 2010)
Read-outs that look alike come from different tables or passages of the source.

Assays:
other serine hydrolases = experiment: competitive activity-based protein profiling, ex vivo after i.p. dosing; type: in vivo, mouse; conditions: 1 h
SHR and WKY rats [1] = experiment: hemodynamic analysis with pressure-volume microcatheter; type: in vivo, rat; conditions: 1 mg/kg i.v., 20 min
FAAH [2] = biological target: T1, FAAH (Mus musculus, UniProt O08914); type: cell-based; conditions: 100 nM
T1 sequence (O08914 1-579): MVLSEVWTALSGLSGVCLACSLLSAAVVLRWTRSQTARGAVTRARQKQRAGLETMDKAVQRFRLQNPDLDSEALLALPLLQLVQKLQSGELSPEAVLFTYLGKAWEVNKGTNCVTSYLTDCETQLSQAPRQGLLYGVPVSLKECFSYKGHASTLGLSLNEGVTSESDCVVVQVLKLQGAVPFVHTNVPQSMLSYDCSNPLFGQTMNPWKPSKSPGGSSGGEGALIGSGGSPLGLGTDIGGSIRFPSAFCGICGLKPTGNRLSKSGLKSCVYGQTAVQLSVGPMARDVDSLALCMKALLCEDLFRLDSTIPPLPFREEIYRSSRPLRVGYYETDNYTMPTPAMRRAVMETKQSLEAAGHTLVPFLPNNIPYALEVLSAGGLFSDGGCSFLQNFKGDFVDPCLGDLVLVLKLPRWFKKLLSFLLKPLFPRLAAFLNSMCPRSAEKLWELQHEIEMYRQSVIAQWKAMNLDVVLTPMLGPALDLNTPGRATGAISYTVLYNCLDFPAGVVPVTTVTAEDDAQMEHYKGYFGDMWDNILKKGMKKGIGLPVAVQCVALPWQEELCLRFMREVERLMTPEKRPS

[3] = test system: brain anandamide and 2-AG levels; experiment: brain endocannabinoid levels by LC/MS; conditions: SHR and WKY, bolus i.p. doses, 1 h
SHR and WKY rats [4] = experiment: non-fasting blood glucose in rats; conditions: 1 mg/kg i.p.
human recombinant FAAH = biological target: T2, human recombinant FAAH (Homo sapiens, UniProt O00519); experiment: biochemical
T2 sequence (O00519 1-579): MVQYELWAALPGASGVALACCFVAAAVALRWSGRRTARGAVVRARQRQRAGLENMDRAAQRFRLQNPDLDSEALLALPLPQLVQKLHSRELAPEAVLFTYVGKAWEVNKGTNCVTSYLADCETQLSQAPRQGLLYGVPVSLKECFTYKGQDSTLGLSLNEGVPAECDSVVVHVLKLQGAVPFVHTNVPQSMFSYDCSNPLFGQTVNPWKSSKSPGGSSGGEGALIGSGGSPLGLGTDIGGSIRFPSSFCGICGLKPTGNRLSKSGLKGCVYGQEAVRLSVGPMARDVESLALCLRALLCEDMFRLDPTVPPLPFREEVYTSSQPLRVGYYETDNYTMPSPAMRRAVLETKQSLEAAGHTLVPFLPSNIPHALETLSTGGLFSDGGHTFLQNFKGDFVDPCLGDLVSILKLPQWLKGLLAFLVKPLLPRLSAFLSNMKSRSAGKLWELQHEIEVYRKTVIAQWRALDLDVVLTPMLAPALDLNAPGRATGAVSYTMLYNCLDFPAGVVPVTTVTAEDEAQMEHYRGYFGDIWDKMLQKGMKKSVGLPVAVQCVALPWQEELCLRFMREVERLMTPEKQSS

Mouse hepatocytes = experiment: drug levels in hepatocyte suspensions by LC/MS/MS
FAAH [5] = biological target: T3, FAAH (Rattus norvegicus, UniProt P97612); type: in vivo; conditions: for ID50, inhibition of brain FAAH activity: i.p., 1 h; for reduction of hepatic FAAH activity: 1 mg/kg i.p.
T3 sequence (P97612 1-579): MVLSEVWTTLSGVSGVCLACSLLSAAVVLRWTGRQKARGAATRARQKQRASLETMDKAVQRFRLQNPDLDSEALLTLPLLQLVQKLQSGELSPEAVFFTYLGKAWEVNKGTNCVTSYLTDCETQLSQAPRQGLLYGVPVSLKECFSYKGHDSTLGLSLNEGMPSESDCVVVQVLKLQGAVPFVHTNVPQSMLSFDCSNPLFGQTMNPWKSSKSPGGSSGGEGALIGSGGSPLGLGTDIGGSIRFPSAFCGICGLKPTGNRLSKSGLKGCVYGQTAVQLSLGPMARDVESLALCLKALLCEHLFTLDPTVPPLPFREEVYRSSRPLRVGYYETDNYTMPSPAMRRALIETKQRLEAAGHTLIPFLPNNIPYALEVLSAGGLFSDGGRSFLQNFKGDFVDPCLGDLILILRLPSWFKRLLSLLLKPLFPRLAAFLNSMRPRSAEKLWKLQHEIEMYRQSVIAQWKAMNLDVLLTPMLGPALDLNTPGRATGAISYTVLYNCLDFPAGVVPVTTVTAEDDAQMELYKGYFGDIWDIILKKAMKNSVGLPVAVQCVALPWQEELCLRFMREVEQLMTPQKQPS

SHR and WKY rats [6] = experiment: plasma norepinephrine; type: in vivo, rat; conditions: 1 mg/kg i.v.
CB1 receptor = CB1 receptor (Rattus norvegicus, UniProt P20272); experiment: radioligand displacement, [3H]CP,55940, rat forebrain membranes
CB1 receptor, sequence (P20272 whole entry): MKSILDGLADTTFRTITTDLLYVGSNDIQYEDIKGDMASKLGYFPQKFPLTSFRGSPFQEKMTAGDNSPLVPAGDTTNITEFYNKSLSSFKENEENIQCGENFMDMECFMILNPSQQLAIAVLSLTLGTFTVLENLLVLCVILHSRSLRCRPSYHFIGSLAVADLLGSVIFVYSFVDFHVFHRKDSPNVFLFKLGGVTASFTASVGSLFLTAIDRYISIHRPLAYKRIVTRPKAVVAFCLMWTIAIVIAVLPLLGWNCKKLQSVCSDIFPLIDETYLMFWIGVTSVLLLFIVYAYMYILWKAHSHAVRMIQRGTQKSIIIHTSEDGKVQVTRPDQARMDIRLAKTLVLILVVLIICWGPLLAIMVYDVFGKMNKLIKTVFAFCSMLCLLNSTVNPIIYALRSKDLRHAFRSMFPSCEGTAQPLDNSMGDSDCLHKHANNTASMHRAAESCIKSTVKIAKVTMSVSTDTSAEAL

FAAH [7] = biological target: T1, FAAH; experiment: in vivo; type: in vivo
FAAH [8] = biological target: T1, FAAH; experiment: FAAH activity in brain and liver homogenates, drug added in vitro; type: biochemical; conditions: 100 nM added in vitro, brain and liver homogenates

`O=S(=O)(F)CCCCCc1ccc(O)cc1` [AM3506, 5-(4-hydroxyphenyl)pentanesulfonyl fluoride] was tested, and the “activity of other serine hydrolases in brain (ABPP)” value (other serine hydrolases; mouse brain, 0.1 mg/kg i.p.) was “no change”, the “liver unidentified ~58kD protein activity (ABPP)” value (other serine hydrolases; mouse liver, 1 mg/kg i.p.) was “partial inhibition” and the “cardiac contractility (ESPVR)” value (SHR and WKY rats [1]; SHR) was “marked decrease”. For the same molecule, the “cardiac output (CO)” value (SHR and WKY rats [1]; SHR) was “decreases”, the dP/dtmax (SHR and WKY rats [1]; SHR) was “decreases” and the “left ventricular end-systolic pressure (LVESP)” value (SHR and WKY rats [1]; SHR) was “decreases”. The “LVESP, dP/dtmax, TPR and CO” value (SHR and WKY rats [1]; normotensive WKY) was “No changes”, the “FAAH activity in cells, dense hepatocyte suspension” value (FAAH [2]; 40 mg/mL) was “no measurable change” and the “FAAH activity in cell pellet, dilute hepatocyte suspension” value (FAAH [2]; 30 min, 1 mg wet cell weight/mL) was “nearly completely blocked”. For the same molecule, the “brain 2-AG levels” value [3] was “remained unaffected”, the brain anandamide levels [3] was “parallel increases” and the “non-fasting blood glucose after treatment” value (SHR and WKY rats [4]; SHR, from 97.8±5.6) was 96.8 ± 2.9 mg/dL. The “non-fasting blood glucose after treatment” value (SHR and WKY rats [4]; WKY, from 114.5±5.3) was 108.2 ± 4.5 mg/dL, the IC50 (human recombinant FAAH) was 48 nM and the “recovery of drug from cell-free medium” value (Mouse hepatocytes; 0 to 30 min, no hepatocytes) was “remained constant”. For the same molecule, the “drug level in cell pellets, dense hepatocyte suspension” value (Mouse hepatocytes; 100 nM, 40 mg/mL) was “below threshold”, the “drug level in medium, dense hepatocyte suspension” value (Mouse hepatocytes; 100 nM, 40 mg/mL) was “rapidly depleted from the medium” and the “free drug (parent ion) still present in cell-free supernatant” value (Mouse hepatocytes; dilute hepatocyte suspension 1 mg/mL, 100 nM, 10 min, % of drug added at 0 min) was 50–55%. The “ID50, inhibition of brain FAAH activity” value (FAAH [5]; SHR brain) was ~0.1 mg/kg, the “reduction of hepatic FAAH activity” value (FAAH [5]; SHR liver) was 11.1±0.4% and the “ID50, inhibition of brain FAAH activity” value (FAAH [5]; WKY brain) was ~0.1 mg/kg. For the same molecule, the “reduction of hepatic FAAH activity” value (FAAH [5]; WKY liver) was 6.7±0.2%, the “plasma norepinephrine after treatment” value (SHR and WKY rats [6]; WKY, baseline 198±11, remained unaffected) was 167 ± 35 pg/mL and the “reduction of plasma norepinephrine” value (SHR and WKY rats [6]; anesthetized SHR, 30 min) was 82±5%. The “plasma norepinephrine after treatment” value (SHR and WKY rats [6]; anesthetized SHR, 30 min, […]) was 53 ± 12 pg/mL, the Ki (CB1 receptor) was 5770 nM and the “ID50, inhibition of brain FAAH activity” value (FAAH [7]; mouse brain, ex vivo) was 0.10 mg/kg. The “FAAH inhibitory activity in liver” value (FAAH [7]; mouse liver, doses up to 1 mg/kg) was “devoid of substantial FAAH inhibitory activity”, the “suppression of FAAH activity in brain” value (FAAH [7]; oral, 1 mg/kg, brain) was 90±0.4% and the “suppression of hepatic FAAH activity” value (FAAH [7]; oral, 1 mg/kg, liver) was 13±2.6%. For the same molecule, the “FAAH activity in tissue homogenates” value (FAAH [8]) was “equally effective in blocking FAAH activity in brain and liver”.
